Laboratory results as given in article PMC12668138, “First-in-line 3D-printed intravaginal ring for nonhormonal contraception” (Research Square, 2025).
Converted amounts (≈) assume the structure as drawn. “And” between values parts separate entries of the source, which are not always exact repeats. Equal values may be shown once. Read-outs that look alike come from different tables or passages of the source. Values belong to the compound of their own block, whether it stands above or below them.

Experiments:
[1] = tested on: Human vaginal epithelial cells, VK2/E6E7; test: In vitro cytotoxicity, MTS assay; assay type: cell-based; settings: 24 hrs
Experimental: Human vaginal epithelial cells, VK2/E6E7 (ATCC® CRL-2616™), were used to evaluate GML’s effect on cell viability. VK2 cells were propagated in Gibco™ Keratinocyte SFM (1×) media (Cat# 17005042, ThermoFisher Scientific, MA, USA) supplemented with 0.1 ng/mL epidermal growth factor, 50 μg/mL bovine pituitary extract, 0.4 mM CaCl2, and 1% penicillin and streptomycin (P/S; Cat# 15140–122, Gibco). Cells were incubated with varying concentrations of GML for 24 hrs at 37°C. Cell viability was assessed using CellTiter 96® AQueous Non-Radioactive Cell Proliferation (MTS) Assay (Cat# G5421, Promega, WI, USA) per manufacturer instructions.

[2] = tested on: sperm; test: Modified Sander-Cramer assay, 1:1 semen:compound, with recovery; assay type: cell-based, human; settings: for MEC: 30 sec exposure, 1:1 dilution ratio (50 μL semen + 50 μL compound)
Experimental: (§1) Semen samples were collected from consented healthy male donors by masturbation after 2–5 days of sexual abstinence. The protocol was approved by the Eastern Virginia Medical School’s Institutional Review Board (IRB) at the Macon & Joan Brock Virginia Health Sciences, Old Dominion University. Semen analysis was performed according to WHO guidelines.[44]
(§2) The highest spermicidal dilution and minimum effective concentration (MEC) for the test compounds were determined using the modified Sander-Cramer (SCr) assay.[45] […] Briefly, 250 μL of test compounds were incubated with 50 μL of semen for 30 sec at room temperature (RT). During the incubation period, each sample was examined under a phase-contrast microscope (E600 Nikon Eclipse, Melville, MY) for the presence of motile sperm. To evaluate the protective effect of seminal plasma, 50 μL of test compounds were incubated with 50 μL of semen (1:1 dilution ratio) for 30 sec at room temperature (RT). If any motile sperm (i.e. progressive, twitching, etc.) were found within 30 seconds, then the dilution was recorded as ‘Failed’. If no motile sperm were found, the dilution was considered as ‘Pass.’ The results from 4–6 independent experiments were combined, and the highest spermicidal dilution and MEC were calculated as MEC=initialconcentration/highestspermicidaldilution and presented as Mean ± SE.
(§3) To see whether the sperm immobilizing effect of the compounds was reversible, 1 mL of warmed Ham’s F-10 media (Millipore Sigma, MA, USA) supplemented with 1% Human Serum Albumin (HSA) (Millipore Sigma, MA, USA) was added to each sample to further dilute the compound concentration and assess the reversibility of the sperm immobilization effect. Sperm were incubated for an additional 60 mins at 37°C. After this sperm “recovery” period, motility was re-evaluated with manual counting and calculated as: %SpermMotility=TotalMotileSperm/TotalMotile+immobileSperm*100.

[3] = tested on: sperm; test: Time-response sperm motility assay (single compounds, 1:1 dilution); assay type: cell-based, human
Experimental: A time-response experiment was conducted to assess the impact of contraceptive compounds on sperm motility at various time points following incubation. Sperm samples were incubated with varying concentrations of LA or GML (1:1 dilution ratio) for 30 secs, 10, 30, 60, and 120 minutes. Concentrations of GML were selected based on the critical micelle concentration (CMC) of 16.4 μg/mL.[43] Each sample was examined under a phase-contrast microscope, and sperm motility was assessed manually.

[4] = Saturation solubility in relevant solvents and release media; assay type: physicochemical; settings: thermodynamic from solid, read-out: GML Saturation Solubility
Experimental: Approximately 20 mg samples of GML were weighed into microcentrifuge tubes and 100 μL of solvent (n=3) was subsequently added. Samples were vortexed and assessed visually to determine dissolution progress. As dissolution occurred, an additional 20 mg of GML was added until complete saturation was reached. All samples were then stored, protected from light, overnight to confirm complete saturation. […] The supernatant samples were diluted with MeOH and drug concentration was subsequently analyzed via LC-MS as described above.

[5] = tested on: sperm; test: Sander-Cramer assay, 1:6 semen:compound, with recovery; assay type: cell-based, human; settings: for MEC after recovery ± SD: 1:6 semen:compound, diluted with 1 mL inhibitor-free media, 60 mins; for MEC ± SD: 30 sec exposure, 1:6 dilution ratio (50 μL semen + 250 μL compound)
Experimental: as §1, §2, §3

[6] = design: method as in PMID 26585883; settings: cited from earlier work
[7] = Lactic acid titration of simulated vaginal and seminal fluids (pH); assay type: physicochemical; settings: for pH reached: same LA concentration (24 mM)
Experimental: The amount of lactic acid necessary for contraceptive efficacy was estimated by measuring solution pH. Simulated vaginal and seminal fluids, with physiologically-representative buffer capacities, were prepared as previously described by Rastogi et al.[43] Simulated vaginal fluid (SVF) was mixed with seminal fluid simulant (SFS) in a 1:5 ratio to represent potential fluid volumes during intercourse.

SMILES: CCCCCCCCCCCC(=O)OCC(O)CO (stereo not drawn) [GML, glycerol monolaurate]
Concentrations considered non-cytotoxic [1]: ≤ 20 µg/mL
Concentrations significantly decreasing cell viability [1]: ≥ 200 µg/mL
MEC after recovery ([2]; 1:1 semen:compound, diluted with 1 mL inhibitor-free media, 60 mins): 1.7 ± 0.9 mg/mL
MEC [2]: 55 ± 5.8 mg/mL
Time to immobilize all sperm ([3]; at 20 mg/mL, 1:1 dilution ratio): 10 min
Concentration completely immobilizing sperm ([3]; incubation 30–120 mins, 1:1 dilution ratio): 2 mg/mL
solubility at 24 h ([4]; acetone, organic solvent or mixture): 255.2 ± 1.74 mg/mL (≈ 930 mM)
solubility at 24 h ([4]; ethanol, organic solvent or mixture, EtOH): 271 ± 18 mg/mL (≈ 988 mM)
solubility at 24 h ([4]; methanol, organic solvent or mixture, MeOH): 278 ± 45.2 mg/mL (≈ 1010 mM)
solubility at 24 h ([4]; simulated vaginal fluid with 2% Solutol, pH 4.2, aqueous with cosolvent or surfactant or cyclodextrin, SVF (w/ 2% solutol)): 3.25 ± 0.45 mg/mL (≈ 11.8 mM)
solubility at 24 h ([4]; water): 4.48 ± 0.12 mg/mL (≈ 16.3 mM)
Concentration above which compound visibly precipitated ([5]; 0.9% saline): above 0.2 mg/mL
MEC after recovery ± SD [5]: 1.7 ± 0.9 mg/mL and 1.7 ± 0.9^γ mg/mL
MEC ± SD [5]: 45 ± 5.5 mg/mL
Critical micelle concentration (CMC) [6]: 16.4 µg/mL

LA concentration at which mixture pH reached 4.2 ([7]; 1:5 mixture of SVF and SFS): 24 mM and 2.16 mg/mL
pH reached ([7]; SSF alone): 3.37
pH reached ([7]; SVF alone): 3.67
SMILES: CC(O)C(=O)O (stereo not drawn) [LA, lactic acid]
MEC [2]: 18 mg/mL
MEC ([3]; following 10 mins, persisting during 120 mins, 1:1 dilution ratio): 10 mg/mL
Concentration inducing immediate sperm immobilization ([3]; summary statement): 10 mg/mL
MEC ([3]; within 30 sec, 1:1 dilution ratio): 20 mg/mL
MEC after recovery ± SD [5]: 9 mg/mL
MEC ± SD [5]: 9 mg/mL
